According to patent US10800794B2, “Heterocycle-substituted bicyclic azole pesticides” (priority 2015, dated 2020):

System: sweetpotato whitefly (Bemisia tabaci (Gennadius))
Assay: Test D: control of sweetpotato whitefly through contact and/or systemic means, sprayed cotton plant infested with eggs
Format: in vivo
Conditions: sprayed at 50 ppm, assessed after 13 days at 28° C.
Protocol: Test compounds were formulated using a solution containing 10% acetone, 90% water and 300 ppm X-77® Spreader Lo-Foam Formula non-ionic surfactant containing alkylarylpolyoxyethylene, free fatty acids, glycols and isopropanol (Loveland Industries, Inc. Greeley, Colo., USA). The formulated compounds were applied in 1 mL of liquid through a SUJ2 atomizer nozzle with ⅛ JJ custom body (Spraying Systems Co. Wheaton, Ill., USA) positioned 1.27 cm (0.5 inches) above the top of each test unit. Test compounds were sprayed at the rates indicated, and each test was replicated three times.
For evaluating control of the sweetpotato whitefly (Bemisia tabaci (Gennadius)) through contact and/or systemic means, the test unit consisted of a small open container with a 12-14-day-old cotton plant inside. Prior to the spray application, both cotyledons were removed from the plant, leaving one true leaf for the assay. Adult whiteflies were allowed to lay eggs on the plant and then were removed from the test unit. Cotton plants infested with at least 15 eggs were submitted to the test for spraying.
Test compounds were formulated and sprayed at 250 and/or 50 ppm. After spraying, the test units were allowed to dry for 1 hour. […] Each test unit was then visually assessed for insect mortality.

For `CN(C)C(=O)C(C)(C)NC(=O)c1csc2nc(-c3cncc(F)c3)cn12` [Compound 14], the mortality was “at least 80%”.
